Test results reported in article PMC6691788, “Design and synthesis of phthalazine-based compounds as potent anticancer agents with potential antiangiogenic activity via VEGFR-2 inhibition” (Journal of Enzyme Inhibition and Medicinal Chemistry, 2019).

How the values were obtained:
Assay in all cases: NCI 60 cell panel SRB screen
Format in all cases: cell-based
OVCAR-5 = conditions: Homo sapiens; for GI50 / IC (TGI) / CC50: OVCAR-5, 5 log dose; for CC50: 48 h, read-out: LC50 (the source's name); for activity at 10 µM: OVCAR-5, single dose 10 μM, read-out: percent cell growth promotion
UACC-257 = conditions: Homo sapiens; for GI50: UACC-257; for IC (TGI): UACC-257, read-out: TGI; for activity at 10 µM: UACC-257, read-out: percent cell growth promotion; for CC50: UACC-257, 5 log dose, 48 h, read-out: LC50 (the source's name)
MOLT-4 = conditions: Homo sapiens; for GI50 / IC (TGI) / CC50: MOLT-4, 5 log dose; for CC50: 48 h, read-out: LC50 (the source's name); for activity at 10 µM: MOLT-4, single dose 10 μM, read-out: percent cell growth promotion
NCI-H23 = conditions: Homo sapiens; for GI50 / IC (TGI) / CC50: NCI-H23, 5 log dose; for CC50: 48 h, read-out: LC50 (the source's name); for activity at 10 µM: NCI-H23, single dose 10 μM, read-out: percent cell growth promotion
SK-OV-3 = conditions: Homo sapiens; for GI50 / IC (TGI) / CC50: SK-OV-3, 5 log dose; for CC50: 48 h, read-out: LC50 (the source's name); for activity at 10 µM: SK-OV-3, single dose 10 μM, read-out: percent cell growth promotion
ACHN = conditions: Homo sapiens; for GI50 / IC (TGI) / CC50: 5 log dose; for CC50: 48 h, read-out: LC50 (the source's name); for activity at 10 µM: single dose 10 μM, read-out: percent cell growth promotion
HOP-62 = conditions: Homo sapiens; for GI50 / IC (TGI) / CC50: HOP-62, 5 log dose; for CC50: 48 h, read-out: LC50 (the source's name); for activity at 10 µM: HOP-62, single dose 10 μM, read-out: percent cell growth promotion
A498 = conditions: Homo sapiens; for GI50 / IC (TGI) / CC50: A498, 5 log dose; for CC50: 48 h, read-out: LC50 (the source's name); for activity at 10 µM: A498, single dose 10 μM, read-out: percent cell growth promotion
SF-295 = conditions: Homo sapiens; for GI50 / IC (TGI) / CC50: SF-295, 5 log dose; for CC50: 48 h, read-out: LC50 (the source's name); for activity at 10 µM: SF-295, single dose 10 μM, read-out: percent cell growth promotion
HCT-15 = conditions: Homo sapiens; for GI50 / IC (TGI) / CC50: HCT-15, 5 log dose; for CC50: 48 h, read-out: LC50 (the source's name); for activity at 10 µM: HCT-15, single dose 10 μM, read-out: percent cell growth promotion
HCT-116 = conditions: Homo sapiens; for GI50 / IC (TGI) / LC50 (lethal concentration 50%): HCT-116, 5 log dose; for LC50 (lethal concentration 50%): 48 h; for activity at 10 µM: HCT-116, single dose 10 μM, read-out: percent cell growth promotion
COLO 205 = conditions: Homo sapiens; for GI50 / IC (TGI) / CC50: COLO 205, 5 log dose; for CC50: 48 h, read-out: LC50 (the source's name); for activity at 10 µM: COLO 205, single dose 10 μM, read-out: percent cell growth promotion
NCI/ADR-RES = conditions: Homo sapiens; for GI50 / IC (TGI) / CC50: 5 log dose; for CC50: 48 h, read-out: LC50 (the source's name); for activity at 10 µM: single dose 10 μM, read-out: percent cell growth promotion
A549/ATCC = conditions: Homo sapiens; for GI50 / IC (TGI) / LC50 (concentration killing 50% of cells): 5 log dose; for LC50 (concentration killing 50% of cells): 48 h; for activity at 10 µM: single dose 10 μM, read-out: percent cell growth promotion
SF-268 = conditions: Homo sapiens; for GI50 / IC (TGI) / CC50: SF-268, 5 log dose; for CC50: 48 h, read-out: LC50 (the source's name); for activity at 10 µM: SF-268, single dose 10 μM, read-out: percent cell growth promotion
K-562 = conditions: Homo sapiens, K562; for GI50 / IC (TGI) / CC50: K-562, 5 log dose; for CC50: 48 h, read-out: LC50 (the source's name); for activity at 10 µM: K-562, single dose 10 μM, read-out: percent cell growth promotion
U251 = conditions: Homo sapiens, U-251; for GI50 / IC (TGI) / CC50: U251, 5 log dose; for CC50: 48 h, read-out: LC50 (the source's name); for activity at 10 µM: U251, single dose 10 μM, read-out: percent cell growth promotion
MDA-MB-468 = conditions: Homo sapiens; for activity at 10 µM: MDA-MB-468, MDA-MBA-468, single dose 10 μM, read-out: percent cell growth promotion; for GI50 / IC (TGI) / CC50: MDA-MB-468, 5 log dose; for CC50: 48 h, read-out: LC50 (the source's name)
Outline: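 Cells in RPMI 1640 with 5% FBS, preincubated 24 h, then exposed to five concentrations for 48 h at 37 °C. TCA fixation, SRB staining, absorbance at 515 nm; a time-zero plate allows GI50 (50% reduction in net protein gain), TGI and LC50 (50% loss versus start).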

SK-MEL-28 = conditions: Homo sapiens; for GI50: SK-MEL-28; for IC (TGI): SK-MEL-28, read-out: TGI; for activity at 10 µM: SK-MEL-28, read-out: percent cell growth promotion; for CC50: SK-MEL-28, 5 log dose, 48 h, read-out: LC50 (the source's name)

COc1cccc(NCc2nnc(Nc3ccc(Cl)cc3)c3ccccc23)c1 [Compound 16d, N-(4-Chlorophenyl)-4-((3-methoxyphenylamino)methyl)phthalazin-1-amine]
GI50 (OVCAR-5): 3.38 µM
IC (TGI) (OVCAR-5): 11.8 µM
CC50 (OVCAR-5): > 25 µM
activity at 10 µM (OVCAR-5): 8.44%
GI50 (UACC-257): 2.04 µM
IC (TGI) (UACC-257): 5.28 µM
activity at 10 µM (UACC-257): -39.7%
CC50 (UACC-257): 11.6 µM
GI50 (MOLT-4): 1.1 µM
IC (TGI) (MOLT-4): 7.57 µM
CC50 (MOLT-4): > 25 µM
activity at 10 µM (MOLT-4): -27.2%
GI50 (NCI-H23): 1.22 µM
IC (TGI) (NCI-H23): 6.74 µM
CC50 (NCI-H23): 24.6 µM
activity at 10 µM (NCI-H23): 2.05%
GI50 (SK-OV-3): 1.13 µM
IC (TGI) (SK-OV-3): 8.19 µM
CC50 (SK-OV-3): > 25 µM
activity at 10 µM (SK-OV-3): -11.9%
GI50 (ACHN): 1.56 µM
IC (TGI) (ACHN): 24.4 µM
CC50 (ACHN): > 25 µM
activity at 10 µM (ACHN): -5.35%
GI50 (HOP-62): 2.06 µM
IC (TGI) (HOP-62): 8.48 µM
CC50 (HOP-62): > 25 µM
activity at 10 µM (HOP-62): -17.1%
GI50 (A498): 1.27 µM
IC (TGI) (A498): 4.42 µM
CC50 (A498): 11.5 µM
activity at 10 µM (A498): -26.8%
GI50 (SF-295): 1.94 µM
IC (TGI) (SF-295): 8.24 µM
CC50 (SF-295): > 25 µM
activity at 10 µM (SF-295): -22.6%
GI50 (HCT-15): 1.78 µM
IC (TGI) (HCT-15): 7.56 µM
CC50 (HCT-15): > 25 µM
activity at 10 µM (HCT-15): -18.1%
GI50 (HCT-116): 0.88 µM
IC (TGI) (HCT-116): 4.2 µM
LC50 (lethal concentration 50%) (HCT-116): 11.2 µM
activity at 10 µM (HCT-116): -44.2%
GI50 (COLO 205): 0.49 µM
IC (TGI) (COLO 205): 4.01 µM
CC50 (COLO 205): 15.4 µM
activity at 10 µM (COLO 205): -22.2%
GI50 (NCI/ADR-RES): 2.55 µM
IC (TGI) (NCI/ADR-RES): > 25 µM
CC50 (NCI/ADR-RES): > 25 µM
activity at 10 µM (NCI/ADR-RES): -5.42%
GI50 (A549/ATCC): 1.93 µM
IC (TGI) (A549/ATCC): 9.42 µM
LC50 (concentration killing 50% of cells) (A549/ATCC): > 25 µM
activity at 10 µM (A549/ATCC): 2.56%
GI50 (SF-268): 2.05 µM
IC (TGI) (SF-268): 10.5 µM
CC50 (SF-268): > 25 µM
activity at 10 µM (SF-268): 2.52%
GI50 (K-562): 1.49 µM
IC (TGI) (K-562): 13.1 µM
CC50 (K-562): > 25 µM
activity at 10 µM (K-562): 2.2%
GI50 (U251): 2.78 µM
IC (TGI) (U251): 6.54 µM
CC50 (U251): > 25 µM
activity at 10 µM (U251): -56.2%
activity at 10 µM (MDA-MB-468): -21.9%
GI50 (MDA-MB-468): 1.05 µM
IC (TGI) (MDA-MB-468): 4.73 µM
CC50 (MDA-MB-468): 19.5 µM
GI50 (SK-MEL-28): 2.62 µM
IC (TGI) (SK-MEL-28): 6.17 µM
activity at 10 µM (SK-MEL-28): -16.1%
CC50 (SK-MEL-28): 14.5 µM

Clc1ccc(Nc2nnc(COc3ccccc3)c3ccccc23)cc1 [Compound 17a, N-(4-Chlorophenyl)-4-(phenoxymethyl)phthalazin-1-amine]
GI50 (OVCAR-5): 3.88 µM
IC (TGI) (OVCAR-5): 15.4 µM
CC50 (OVCAR-5): > 25 µM
activity at 10 µM (OVCAR-5): 23.1%
GI50 (UACC-257): 2.54 µM
IC (TGI) (UACC-257): 5.82 µM
activity at 10 µM (UACC-257): -24.9%
CC50 (UACC-257): 13.4 µM
GI50 (MOLT-4): 1.06 µM
IC (TGI) (MOLT-4): 6.7 µM
CC50 (MOLT-4): > 25 µM
activity at 10 µM (MOLT-4): -32.6%
GI50 (NCI-H23): 1.56 µM
IC (TGI) (NCI-H23): 7.87 µM
CC50 (NCI-H23): > 25 µM
activity at 10 µM (NCI-H23): 4.18%
GI50 (SK-OV-3): 2.38 µM
IC (TGI) (SK-OV-3): 9.96 µM
CC50 (SK-OV-3): > 25 µM
activity at 10 µM (SK-OV-3): 9.17%
GI50 (ACHN): 2.35 µM
IC (TGI) (ACHN): > 25 µM
CC50 (ACHN): > 25 µM
activity at 10 µM (ACHN): 3.37%
GI50 (HOP-62): 2.51 µM
IC (TGI) (HOP-62): 7.74 µM
CC50 (HOP-62): 23.9 µM
activity at 10 µM (HOP-62): 13.1%
GI50 (A498): 0.68 µM
IC (TGI) (A498): 3.64 µM
CC50 (A498): 10.6 µM
activity at 10 µM (A498): -17.3%
GI50 (SF-295): 1.65 µM
IC (TGI) (SF-295): 6.7 µM
CC50 (SF-295): 20.5 µM
activity at 10 µM (SF-295): -1.11%
GI50 (HCT-15): 2.05 µM
IC (TGI) (HCT-15): 6.75 µM
CC50 (HCT-15): 19.7 µM
activity at 10 µM (HCT-15): 4.45%
GI50 (HCT-116): 1.07 µM
IC (TGI) (HCT-116): 4.83 µM
LC50 (lethal concentration 50%) (HCT-116): 13.1 µM
activity at 10 µM (HCT-116): 1.21%
GI50 (COLO 205): 0.45 µM
IC (TGI) (COLO 205): 4.38 µM
CC50 (COLO 205): 16.1 µM
activity at 10 µM (COLO 205): -5.75%
GI50 (NCI/ADR-RES): 2.62 µM
IC (TGI) (NCI/ADR-RES): 16.6 µM
CC50 (NCI/ADR-RES): > 25 µM
activity at 10 µM (NCI/ADR-RES): -1.13%
GI50 (A549/ATCC): 2.87 µM
IC (TGI) (A549/ATCC): 12.3 µM
LC50 (concentration killing 50% of cells) (A549/ATCC): > 25 µM
activity at 10 µM (A549/ATCC): 4.64%
GI50 (SF-268): 2.23 µM
IC (TGI) (SF-268): 12.9 µM
CC50 (SF-268): > 25 µM
activity at 10 µM (SF-268): 13.2%
GI50 (K-562): 1.85 µM
IC (TGI) (K-562): 11.9 µM
CC50 (K-562): > 25 µM
activity at 10 µM (K-562): 2.77%
GI50 (U251): 1.24 µM
IC (TGI) (U251): 7.47 µM
CC50 (U251): 19.1 µM
activity at 10 µM (U251): -12.7%
activity at 10 µM (MDA-MB-468): -16.9%
GI50 (MDA-MB-468): 1.49 µM
IC (TGI) (MDA-MB-468): 7.62 µM
CC50 (MDA-MB-468): > 25 µM
GI50 (SK-MEL-28): 2.84 µM
IC (TGI) (SK-MEL-28): 7.23 µM
activity at 10 µM (SK-MEL-28): 4.73%
CC50 (SK-MEL-28): 18.4 µM
